# In paper PMC7898822, “RNA‐PROTACs: Degraders of RNA‐Binding Proteins” (Angewandte Chemie (International Ed. in English), 2020):
# pKd: −log10 of the molar value. Oligonucleotides are written 5' to 3', each unit as a sugar letter and its base; * is a phosphorothioate linkage, no mark a phosphodiester; rarer units and linkages stand in square brackets, end groups in braces. Plain capitals give the bases only. {FAM} = fluorescein (FAM) label; r = 2'-OH (RNA)
# Legend:
# [1] = test system: QKI (pDEST-Myc-QKI); test: Ubiquitination assay of Myc-QKI (negative control RBP) in 22Rv1 cells; type: cell-based; details: pDEST-Myc-QKI and HA-Ub, 500 nM, 48 h
# Procedure: (§1) Next, we investigated the ability of ORN3P1 and ORN7P1 to mediate ubiquitination of Lin28 in cells, using a previously described protocol. ^[32] Cells from the prostate cancer cell line 22RV1, which express very low levels of Lin28, were co‐transfected with two plasmids expressing pCMV‐myc‐Lin28A and HA‐tagged polyubiquitin (HA‐Ub).
# (§2) After 48 h of incubation with ORN3P1 and ORN7P1, the tagged Lin28 (and the control QKI) was immunoprecipitated using an anti‐Myc antibody. The isolated protein was then analyzed by western blotting using the anti‐HA and anti‐c‐Myc antibodies. Consistent with other previously described PROTAC reagents,[ ^32 , ^33 ]
# (§3) The protein extracts (12-17 µg) were run on a 4-20% SDS-PAGE and transferred on a nitrocellulose blotting membrane 0.22 µm (GE Healthcare) using the Trans-Blot transfer device (Biorad). Membranes were blocked with 5% milk and incubated with the primary antibody overnight at 4 °C. Membranes were washed with 0.05% PBS-T and reacted with the secondary antibody for 1 h in 5% milk. The proteins were detected using the anti-lin28a antibody (Cell Signaling technology, D9F5), anti-lin28b antibody (Cell Signaling technology, 4196S), anti-rbfox1 (NovusBio, NBP2-13169SS), at 1:1000 and anti-hrnp c antibody […]
# (§4) (Abcam, AB133607) at 1:10000 dilutions. […]
# (§5) on a ChemiDoc MP imager (Biorad). The intensity of the signal was quantified using the ImageJ-Fiji software. […]
# [2] = test system: Lin28A; test: Pull-down RNA ELISA, gymnosis, anti-Lin28A; type: cell-based, human; details: 3'-biotin conjugates, K562 cells, 2 µM, 24 h; streptavidin plate; vs mock or FUS antibody
# Description: Humans express two paralogs of the protein, LIN28 (Lin28A) and LIN28B (Lin28B), that play key roles in development, metabolism, and pluripotency. ^[34] Lin28 proteins are abundantly expressed during embryonic development, as well as in several tumors and tumor‐derived cell lines. ^[35] […] In order to confirm that RNA‐PROTACs bind to endogenous Lin28 in cells, we performed a pull‐down RNA ELISA assay that we have previously described. ^[36] Thus, we conjugated a biotin group to the 3′ ends of ORN3P1 and ORN7P1 and added these reagents separately on to myelogenous leukemia K562 cells. We incubated lysates from treated cells on streptavidin‐coated plates so as to capture the RNA‐PROTACs present in the cell lysates. We then assayed for the presence of Lin28A in the plates using an anti‐Lin28A antibody and a negative control anti‐FUS antibody. […]
# The protein extracts (12-17 µg) were run on a 4-20% SDS-PAGE and transferred on a nitrocellulose blotting membrane 0.22 µm (GE Healthcare) using the Trans-Blot transfer device (Biorad). […] The proteins were detected using the anti-lin28a antibody (Cell Signaling technology, D9F5), anti-lin28b antibody (Cell Signaling technology, 4196S), anti-rbfox1 (NovusBio, NBP2-13169SS), at 1:1000 and anti-hrnp c antibody […]
# as §5
# [3] = test system: Lin28A; test: Western blot of Lin28A in NT2/D1 cells; type: cell-based, human; details: 2 μM, three independent experiments
# Description: Finally, we tested RNA‐PROTACs for their ability to degrade their target in two cell lines: the embryonic NT2/D1 cell line, which expresses high levels of Lin28A, ^[13a] and K562 cells which express Lin28A and Lin28B. […] Finally, we co‐treated K562 cells with ORN3P1 and MG132, a reversible inhibitor of the 26S proteasome. […] In order to explore the versatility of RNA‐PROTACs with non peptide‐based VHL ligands, we conjugated small‐molecule VH032 ^[38] to ORN3 via an amino linker to yield ORN3VH032 (Figure S1). […]
# [4] = molecular target: T1, Lin28_ZKD (Homo sapiens, UniProt Q9H9Z2); test: Fluorescence polarization competition assay (displacement of let7FAM from Lin28_ZKD); type: binding; details: competition FP, conjugate vs parent
# T1 construct: construct encoding amino acids 124–186 of human Lin28; His6; made in house; host or cells: Escherichia coli BL21 (DE3) Codon+ (RIL)
# T1 sequence (Q9H9Z2 124-186): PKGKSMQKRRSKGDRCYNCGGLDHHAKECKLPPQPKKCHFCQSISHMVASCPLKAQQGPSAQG
# Procedure: Fluorescence Polarization Assay. Fluorescence polarization titration assay was carried out by titrating Lin28_ZKD protein into FAM-labeled PreE-let-7 at a 10 nM final concentration and buffer (10 mM HEPES, 150 mM NaCl, 10 µM ZiCl2, pH 7,4). The assay plate was briefly vortexed, and air bubbles were removed by spinning at 1000 rpm. The fluorescence anisotropy was measured on a Spectra Max Paradigm multimode plate reader (Molecular Devices). The fluorescence polarization competition […]
# preE-let-7. The concentration of Lin28_ ZKD is kept at 40 nM, a value in the range of the dissociation constant of Lin28_ZKD and preE-let-7 determined through fluorescence polarization titration assay, whereas preE-let-7 concentration is kept constant at 10 nM. FP competitive binding assays were performed on 384-well plates (#3575, Corning) with a total well volume of 10 µL.
# (§6) Fluorescence polarization readings were transferred into Prism 7.0 (GraphPad). All fluorescence polarization assays were repeated at least three times and the anisotropy values fitted using GraphPad Prism software using 1:1 binding/inhibition model. […]
# [5] = test system: myc-Lin28A; test: Ubiquitination assay of myc-Lin28A in 22Rv1 cells; type: cell-based; details: HA-Ub co-transfected, 500 nM, 48 h, anti-HA western blot after cMyc IP
# Procedure: as §1, §2, §3, §4, §5
# [6] = molecular target: T1, Lin28_ZKD; test: Fluorescence polarization titration, Lin28_ZKD binding to preE-let-7f-1-FAM; details: Lin28_ZKD titrated into FAM-labeled preE-let-7, 10 nM; 10 mM HEPES, 150 mM NaCl, pH 7.4; read-out: K D of the Lin28_ZKD/let7FAM interaction
# Procedure: Fluorescence Polarization Assay. Fluorescence polarization titration assay was carried out by titrating Lin28_ZKD protein into FAM-labeled PreE-let-7 at a 10 nM final concentration and buffer (10 mM HEPES, 150 mM NaCl, 10 µM ZiCl2, pH 7,4). The assay plate was briefly vortexed, and air bubbles were removed by spinning at 1000 rpm. The fluorescence anisotropy was measured on a Spectra Max Paradigm multimode plate reader (Molecular Devices). […]
# as §6
Compound,ubiquitination of QKI [1],Lin28A pull-down signal [2],reduction of Lin28A [3] [%],competition for Lin28_ZKD relative to parent unconjugated oligonucleotides [4],ubiquitination of myc-Lin28A [5],pKd [6]
CC[C@H](C)[C@H](NC(=O)[C@H](Cc1ccc(O)cc1)NC(=O)[C@@H]1C[C@@H](O)CN1C(=O)[C@H](C)NC(=O)[C@H](CC(C)C)NC(=O)CCCCCNC(=O)[C@@H](N)CSC1CC(=O)N(CCOP(=O)(S)OC[C@H]2O[C@@H](n3cnc4c(N)ncnc43)[C@H](OCCOC)[C@@H]2OP(=O)(S)OC[C@H]2O[C@@H](n3cnc4c(=O)[nH]c(N)nc43)[C@H](OCCOC)[C@@H]2OP(=O)(S)OC[C@H]2O[C@@H](n3cnc4c(=O)[nH]c(N)nc43)[C@H](OCCOC)[C@@H]2OP(=O)(S)OC[C@H]2O[C@@H](n3cnc4c(N)ncnc43)[C@H](OCCOC)[C@@H]2OP(=O)(S)OC[C@H]2O[C@@H](n3cnc4c(=O)[nH]c(N)nc43)[C@H](OCCOC)[C@@H]2OP(=O)(S)OC[C@H]2O[C@@H](n3cnc4c(N)ncnc43)[C@H](OCCOC)[C@@H]2OP(=O)(S)OC[C@H]2O[C@@H](n3cc(C)c(=O)[nH]c3=O)[C@H](OCCOC)[C@@H]2OP(=O)(S)OC[C@H]2O[C@@H](n3cnc4c(N)ncnc43)[C@H](OCCOC)[C@@H]2OP(=O)(S)OC[C@H]2O[C@@H](n3cnc4c(N)ncnc43)[C@H](OCCOC)[C@@H]2OP(=O)(S)OC[C@H]2O[C@@H](n3cc(C)c(N)nc3=O)[C@H](OCCOC)[C@@H]2OP(=O)(S)OC[C@H]2O[C@@H](n3cc(C)c(=O)[nH]c3=O)[C@H](OCCOC)[C@@H]2O)C1=O)C(=O)O (stereo partly drawn) [ORN7P1],showed no such effects,strong signal for Lin28A protein,~50,competed slightly more strongly,showed a smear on the gel towards higher molecular weight,
"Let7FAM: FAM_GGGGUAGUGAUUU UACCCUGUUCAGGAGAU, PO-RNA; fluorescent probe ({FAM}-rGrGrGrGrUrArGrUrGrArUrUrUrUrArCrCrCrUrGrUrUrCrArGrGrArGrArU)",,,,,,7.57
